Experimental data: ChEMBL document CHEMBL1132756, “A new benzoangelicin with strong photobiological activity” (Bioorg Med Chem Lett, 2000)
Calls of active or inactive are those of the source. The rule behind the calls is not given here.

Columns and labels:
HeLa = experiment: In vitro antiproliferative activity against human cervix adenocarcinoma (HeLa) cells; assay type: functional, cell-based
HL-60 = experiment: In vitro antiproliferative activity against human promyelocytic (HL-60) cells; assay type: functional, cell-based
Cavia porcellus [1] = organism: Cavia porcellus; experiment: Phototoxicity (50 mg cm e-2) was evaluated; No phototoxicity; assay type: functional, organism-based
Cavia porcellus [2] = experiment: Compound was evaluated for the erythema formation; +++ means severe erythema with edema; assay type: functional, organism-based
Cavia porcellus [3] = organism: Cavia porcellus; experiment: Phototoxicity (10 mg/cm**2) was evaluated; highly toxic; assay type: functional, organism-based

SMILES | IC50 (HeLa) [µM] | IC50 (HL-60) [µM] | Phototoxicity (Cavia porcellus [1]) | Erythema formation (Cavia porcellus [2]) | Phototoxicity (Cavia porcellus [3])
Cc1cc(=O)oc2c1c(OCCCN(C)C)cc1oc3ccccc3c12 | 1.12 | 0.52 | No phototoxicity | – | –
COc1c2occc2cc2ccc(=O)oc12 [METHOXSALEN] | 10 | 5.4 | – | Active | Toxic
COc1cc2oc3ccccc3c2c2oc(=O)cc(C)c12 | > 20 | > 20 | No phototoxicity | – | –
Cc1cc(=O)oc2c1c(O)cc1oc3ccccc3c12 | > 20 | 6.95 | No phototoxicity | – | –
